The text below walks through data of patent US10287255B2, “Compounds as histone deacetylase 6 inhibitors and pharmaceutical compositions comprising the same” (CHONG KUN DANG PHARMACEUTICAL CORP., priority 2014, dated 2019).

One experiment has as its target T1, human recombinant HDAC6 (Homo sapiens, UniProt Q9UBN7).
T1 construct: purchased Calbiochem 382180
T1 sequence (Q9UBN7 1-1215): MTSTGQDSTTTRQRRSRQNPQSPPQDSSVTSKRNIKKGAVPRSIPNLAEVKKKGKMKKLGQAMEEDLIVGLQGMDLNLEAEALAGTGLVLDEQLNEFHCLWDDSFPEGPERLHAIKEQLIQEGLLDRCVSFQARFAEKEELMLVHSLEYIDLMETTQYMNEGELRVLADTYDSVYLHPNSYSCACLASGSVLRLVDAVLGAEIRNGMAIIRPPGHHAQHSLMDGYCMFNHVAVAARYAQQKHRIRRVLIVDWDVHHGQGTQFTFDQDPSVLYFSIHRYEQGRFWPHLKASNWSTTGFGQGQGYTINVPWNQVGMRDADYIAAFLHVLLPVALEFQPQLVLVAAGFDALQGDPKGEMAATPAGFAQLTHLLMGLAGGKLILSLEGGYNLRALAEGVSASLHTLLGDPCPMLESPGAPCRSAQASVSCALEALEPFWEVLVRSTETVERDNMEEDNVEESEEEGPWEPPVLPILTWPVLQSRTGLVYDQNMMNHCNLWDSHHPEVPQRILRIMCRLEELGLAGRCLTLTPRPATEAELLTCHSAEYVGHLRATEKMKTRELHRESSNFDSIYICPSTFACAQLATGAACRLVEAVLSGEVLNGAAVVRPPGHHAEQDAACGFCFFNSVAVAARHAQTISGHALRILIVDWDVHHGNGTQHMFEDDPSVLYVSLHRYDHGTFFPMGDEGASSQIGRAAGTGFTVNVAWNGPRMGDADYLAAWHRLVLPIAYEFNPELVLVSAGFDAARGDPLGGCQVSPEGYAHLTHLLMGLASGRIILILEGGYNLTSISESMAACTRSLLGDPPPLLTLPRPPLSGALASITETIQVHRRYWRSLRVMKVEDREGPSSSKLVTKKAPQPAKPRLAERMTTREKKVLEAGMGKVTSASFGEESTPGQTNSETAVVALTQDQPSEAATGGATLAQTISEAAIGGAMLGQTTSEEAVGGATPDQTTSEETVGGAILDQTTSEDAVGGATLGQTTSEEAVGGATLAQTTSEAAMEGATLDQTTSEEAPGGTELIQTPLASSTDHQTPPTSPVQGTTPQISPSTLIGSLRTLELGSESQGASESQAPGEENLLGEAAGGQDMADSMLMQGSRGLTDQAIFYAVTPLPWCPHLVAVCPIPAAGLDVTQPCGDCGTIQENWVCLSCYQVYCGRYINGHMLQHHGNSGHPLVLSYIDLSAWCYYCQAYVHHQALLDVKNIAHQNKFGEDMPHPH
Nature of the experiment: HDAC6 enzyme activity inhibition assay (in vitro, fluorimetric). Type of experiment: biochemical. As to conditions: for HDAC6 selectivity (fold): HDAC6 selectivity over HDAC1; for IC50: human recombinant HDAC6, fluorimetric kit, same protocol as HDAC1. How it is done: (§1) In order to examine the HDAC6 selectivity of the compounds of formula 1 of the present invention by HDAC1 and HDAC6 enzymatic activity inhibition assays, an experiment was performed using a conventional substance as a control.
(§2) HDAC enzyme activity was measured using a HDAC Fluorimetric Drug Discovery Kit (BML-AK511, 516, Enzo Life Science). For the HDAC1 enzyme activity test, human recombinant HDAC1 (BML-SE456) was used as an enzyme source, and Fluor de Lys®-“SIRT1 (BNL-KI177) was used as a substrate. A 5-fold dilution of the compound was seeded into a 96-well plate, and then 0.3 μg of the enzyme and 10 μM of the substrate were added to each well of the plate and allowed to react at 30° C. for 60 minutes. Then, Fluor de Lys® Developer II (BML-KI176) was added thereto and allowed to react for 30 minutes, after which the fluorescence value (Ex 360, Em 460) was measured using a multi-plate reader (Flexstation 3, Molecular Device). The HDAC6 enzyme was tested using human recombinant HDAC6 (382180) (Calbiochem) according to the same protocol as the HDAC1 enzyme activity test method. Based on the resulting values, each IC50 value was calculated using GraphPad Prism4.0 program.

The target in the next experiment is T2, human recombinant HDAC1 (Homo sapiens, UniProt Q13547).
T2 construct: purchased Enzo Life Science BML-SE456
T2 sequence (Q13547 whole entry): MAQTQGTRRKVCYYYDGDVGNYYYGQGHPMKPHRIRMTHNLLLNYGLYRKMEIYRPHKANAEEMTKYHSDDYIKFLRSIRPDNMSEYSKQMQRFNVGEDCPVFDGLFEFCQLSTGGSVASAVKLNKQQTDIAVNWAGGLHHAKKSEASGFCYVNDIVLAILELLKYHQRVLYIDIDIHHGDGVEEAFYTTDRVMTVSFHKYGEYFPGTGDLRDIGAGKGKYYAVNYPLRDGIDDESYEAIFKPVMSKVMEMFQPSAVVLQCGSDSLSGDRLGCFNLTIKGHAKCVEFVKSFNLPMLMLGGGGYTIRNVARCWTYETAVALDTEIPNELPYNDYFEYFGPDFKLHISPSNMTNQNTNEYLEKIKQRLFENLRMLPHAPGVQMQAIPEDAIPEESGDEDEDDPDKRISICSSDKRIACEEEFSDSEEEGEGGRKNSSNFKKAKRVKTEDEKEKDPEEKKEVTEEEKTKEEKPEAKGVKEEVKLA
Nature of the experiment: HDAC1 enzyme activity inhibition assay (in vitro, fluorimetric). Type of experiment: biochemical. As to conditions: human recombinant HDAC1, fluorimetric kit, 30° C. 60 minutes. How it is done: as §1, §2

By IC50 is commonly meant the concentration at which inhibition is half-maximal. In the case of `C[C@@H]1CN(Cc2c[nH]c3cc(C(=O)NO)ccc23)C[C@H](C)N1Cc1ccccc1` [Compound 520, 3-(((3R,5S)-4-benzyl-3,5-dimethylpiperazin-1-yl)methyl)-N-hydroxy-1H-indole-6-carboxamide], at human recombinant HDAC6, the “HDAC6 selectivity (fold)” value is recorded as above 11 fold and the concentration for half-maximal inhibition (IC50) worked out at 860 nM. Also, at human recombinant HDAC1, the IC50 was above 10000 nM.
The like results for `C[C@@H]1CN(Cc2ccccc2C2=CCC(C)(C)CC2)C[C@H](C)N1Cc1ccc(C(=O)NO)cc1` [Compound 352, 4-(((2S,6R)-4-((4′,4′-dimethyl-2′,3′,4′,5′-tetrahydro-[1,1′-biphenyl]-2-yl)methyl)-2,6-dimethylpiperazin-1-yl)methyl)-N-hydroxybenzamide] were, in that order, above 13 fold, 1060 nM and 13800 nM.
The like results for `CC(C)CCN1[C@H](C)CN(Cc2ccc(C(=O)NO)cc2)C[C@@H]1C` [Compound 270, N-hydroxy-4-(((3R,5S)-4-isopentyl-3,5-dimethylpiperazin-1-yl)methyl)benzamide] were, in that order, above 5 fold, 2220 nM and above 10000 nM.
As to `C[C@@H]1CN(Cc2ccc(C(=O)NO)cc2)C[C@H](C)N1Cc1ccc(CN2CCOCC2)cc1` [Compound 376, 4-(((3R,5S)-3,5-dimethyl-4-(4-(morpholinomethyl)benzyl)piperazin-1-yl)methyl)-N-hydroxybenzamide], on human recombinant HDAC6, the “HDAC6 selectivity (fold)” value is on record as above 119 fold. Further, the IC50 at human recombinant HDAC6 was 84 nM; on human recombinant HDAC1, above 10000 nM.
The like results for `C[C@@H]1CN(Cc2ccc(C(=O)NO)cc2)C[C@H](C)N1Cc1ccc2ccccc2c1` [Compound 265, 4-(((3R,5S)-3,5-dimethyl-4-(naphthalen-2-ylmethyl)piperazin-1-yl)methyl)-N-hydroxybenzamide] were, in that order, 84 fold, 74 nM and 6200 nM.
For `C[C@@H]1CN(Cc2ccccc2-c2cccnc2)C[C@H](C)N1Cc1ccc(C(=O)NO)cc1` [Compound 349, 4-(((2S,6R)-2,6-dimethyl-4-(2-(pyridin-3-yl)benzyl)piperazin-1-yl)methyl)-N-hydroxybenzamide], in that order: 1000 fold, 5 nM and 5000 nM.
As to `C[C@@H]1CN(Cc2ccc(C(=O)NO)cc2)C[C@H](C)N1Cc1cccc(CN2CCN(CC(F)(F)F)CC2)c1` [Compound 453, 4-(((3R,5S)-3,5-dimethyl-4-(3-((4-(2,2,2-trifluoroethyl)piperazin-1-yl)methyl)benzyl)piperazin-1-yl)methyl)-N-hydroxybenzamide], on human recombinant HDAC6, the “HDAC6 selectivity (fold)” value came to 154 fold and the IC50 is 77 nM. Moreover, the IC50 on human recombinant HDAC1 was 11900 nM.
With `C[C@@H]1CN(C(=O)c2ccccc2-c2cccnc2)C[C@H](C)N1Cc1ccc(C(=O)NO)cc1` [Compound 279, 4-(((2S,6R)-2,6-dimethyl-4-(2-(pyridin-3-yl)benzoyl)piperazin-1-yl)methyl)-N-hydroxybenzamide], the “HDAC6 selectivity (fold)” value on human recombinant HDAC6 is above 13 fold. Also, the half-inhibitory concentration (IC50) is 769 nM at human recombinant HDAC6 and above 10000 nM on human recombinant HDAC1.
`C[C@@H]1CN(C(=O)c2ccc(CCC(=O)NO)cc2)C[C@H](C)N1Cc1ccccc1` [Compound 824, 3-(4-((3R,5S)-4-benzyl-3,5-dimethylpiperazine-1-carbonyl)phenyl)-N-hydroxypropanamide]: at human recombinant HDAC6, the “HDAC6 selectivity (fold)” value is 22 fold and the half-inhibitory concentration (IC50) is 180 nM. Further, the IC50 at human recombinant HDAC1 came out at 4100 nM.
The like results for `C[C@@H]1CN(S(=O)(=O)c2ccccc2Cl)C[C@H](C)N1Cc1ccc(C(=O)NO)cc1` [Compound 110, 4-(((2S,6R)-4-((2-chlorophenyl)sulfonyl)-2,6-dimethylpiperazin-1-yl)methyl)-N-hydroxybenzamide] were, in that order, 59 fold, 85 nM and 5000 nM.
For `C[C@@H]1CN(Cc2ccc(C(=O)NO)cc2)C[C@H](C)N1C(=O)c1cccc(-c2ccoc2)c1` [Compound 243, 4-(((3R,5S)-4-(3-(furan-3-yl)benzoyl)-3,5-dimethylpiperazin-1-yl)methyl)-N-hydroxybenzamide], in that order: 40 fold, 74 nM and 3000 nM.
The like results for `CCN(CC)Cc1cccc(CN2C[C@@H](C)N(Cc3ccc(/C=C/C(=O)NO)cc3)[C@@H](C)C2)c1` [Compound 476, (E)-3-(4-(((2S,6R)-4-(3-((diethylamino)methyl)benzyl)-2,6-dimethylpiperazin-1-yl)methyl)phenyl)-N-hydroxyacrylamide] were, in that order, 6 fold, 142 nM and 900 nM.
For the molecule `C[C@@H]1CN(Cc2ccc(C3=CCC(C)(C)CC3)cc2)C[C@H](C)N1Cc1ccc(C(=O)NO)cc1` [Compound 400, 4-(((2S,6R)-4-((4′,4′-dimethyl-2′,3′,4′,5′-tetrahydro-[1,1′-biphenyl]-4-yl)methyl)-2,6-dimethylpiperazin-1-yl)methyl)-N-hydroxybenzamide], at human recombinant HDAC6, the “HDAC6 selectivity (fold)” value is reported as 4 fold. The IC50 at human recombinant HDAC6 turned out to be 2820 nM; on human recombinant HDAC1 it was 11300 nM.
For `C[C@@H]1CN(Cc2ccc(C(=O)NO)cc2)C[C@H](C)N1Cc1ccccc1-c1cccnc1` [Compound 330, 4-(((3R,5S)-3,5-dimethyl-4-(2-(pyridin-3-yl)benzyl)piperazin-1-yl)methyl)-N-hydroxybenzamide], in that order: 749 fold, 24 nM and 18000 nM.
With `C[C@@H]1CN(Cc2ccc(C(=O)NO)cc2)C[C@H](C)N1Cc1cccc(C2=CCOCC2)c1` [Compound 346, 4-(((3R,5S)-4-(3-(3,6-dihydro-2H-pyran-4-yl)benzyl)-3,5-dimethylpiperazin-1-yl)methyl)-N-hydroxybenzamide], on human recombinant HDAC6, the “HDAC6 selectivity (fold)” value amounted to 332 fold and the IC50 was determined as 25 nM. Besides, the IC50 at human recombinant HDAC1 was 8300 nM.
For `C[C@@H]1CN(Cc2ccccc2Cl)C[C@H](C)N1Cc1ccc(C(=O)NO)cc1` [Compound 118, 4-(((2S,6R)-4-(2-chlorobenzyl)-2,6-dimethylpiperazin-1-yl)methyl)-N-hydroxybenzamide], in that order: 48 fold, 113 nM and 5500 nM.
For the molecule `C[C@@H]1CN(Cc2ccc(C(=O)NO)cc2)C[C@H](C)N1Cc1ccccc1` [Compound 084, 4-(((3R,5S)-4-benzyl-3,5-dimethylpiperazin-1-yl)methyl)-N-hydroxybenzamide], the figures for the concentration for half-maximal inhibition (IC50) at human recombinant HDAC6 and on human recombinant HDAC1 were 23 nM and 11900 nM, respectively.
For the molecule `C[C@@H]1CN(Cc2ccc(C(=O)NO)cc2)C[C@H](C)N1Cc1ccc(CN2CCCCC2)cc1` [Compound 467, 4-(((3R,5S)-3,5-dimethyl-4-(4-(piperidin-1-ylmethyl)benzyl)piperazin-1-yl)methyl)-N-hydroxybenzamide], at human recombinant HDAC6, the “HDAC6 selectivity (fold)” value is on record as above 204 fold and the IC50 came out at 49 nM. Besides, the IC50 on human recombinant HDAC1 was above 10000 nM.
For `CC(c1ccc(C(=O)NO)cc1)N1C[C@@H](C)N(Cc2ccccc2)[C@@H](C)C1` (stereo partly drawn) [Compound 219, 4-(1-((3R,5S)-4-benzyl-3,5-dimethylpiperazin-1-yl)ethyl)-N-hydroxybenzamide], in that order: above 59 fold, 170 nM and above 10000 nM.
